Assay results: patent US10450292B2, “Inhibitors of bacterial RNA polymerase: arylpropanoyl, arylpropenoyl, and arylcyclopropanecarboxyl phloroglucinols” (Rutgers, The State University of New Jersey, priority 2015, dated 2019)
Converted amounts (≈) assume the structure as drawn.

Legend:
[1] = system: Escherichia coli D21f2tolC; test: microbe, parasite or virus in culture; conditions: 16 h, read-out: MIC E. coli D21f2tolC, Mueller-Hinton II agar, 16 h at 37° C.
[2] = system: Staphylococcus aureus ATCC 12600; test: Inhibition of bacterial growth in culture, spiral gradient endpoint assay (MIC); conditions: Staphylococcus aureus, ATCC12600, 16 h, read-out: MIC S. aureus 12600, Mueller-Hinton II agar, 16 h at 37° C.
[3] = system: Enterococcus faecalis ATCC 19433; test: as above; type: cell-based; conditions: Enterococcus faecalis, ATCC 19433 /, 16 h, read-out: MIC E. faecalis, Mueller-Hinton II agar, 16 h at 37° C.
Text: J. Microbiol. Meths. […] Int. J. Exp. Clin. Chemother. […] Adv.

SMILES	MIC [1]	MIC [2]	MIC [3]
Cc1cc(Oc2ccc(F)cc2)ccc1CCC(=O)c1c(O)cc(O)cc1O [Example 34, 3-(4-(4-fluorophenoxy)-2-methylphenyl)-1-(2,4,6-trihydroxyphenyl)propan-1-one]	1.1 µg/mL (≈ 2.88 µM)	3.6 µg/mL (≈ 9.41 µM)	5.2 µg/mL (≈ 13.6 µM)
O=C(CCc1ccc(Oc2ccc(C(F)(F)F)cc2)cc1)c1c(O)cc(O)cc1O [Example 35, 3-(4-(4-(trifluoromethyl)phenoxy)phenyl)-1-(2,4,6-trihydroxyphenyl)propan-1-one]	1.3 µg/mL (≈ 3.11 µM)	3.5 µg/mL (≈ 8.37 µM)	5.1 µg/mL (≈ 12.2 µM)
Cc1cc(Oc2ccc(F)cc2)ccc1C1CC1C(=O)c1c(O)cc(O)cc1O (stereo not drawn) [Example 36, (2-(4-(4-fluorophenoxy)-2-methylphenyl)cyclopropyl)(2,4,6-trihydroxyphenyl)methanone]	1.7 µg/mL (≈ 4.31 µM)	2.4 µg/mL (≈ 6.09 µM)	4.4 µg/mL (≈ 11.2 µM)
O=C(CCc1ccc(Oc2ccc(F)cc2)cc1C(F)(F)F)c1c(O)cc(O)cc1O [Example 37, 3-(4-(4-fluorophenoxy)-2-(trifluoromethyl)phenyl)-1-(2,4,6-trihydroxyphenyl)propan-1-one]	2.4 µg/mL (≈ 5.5 µM)	3.5 µg/mL (≈ 8.02 µM)	4.4 µg/mL (≈ 10.1 µM)
COc1ccc(C2CC2C(=O)c2c(O)cc(O)cc2O)cc1 (stereo not drawn) [Example 38, (2-(4-methoxyphenyl)cyclopropyl)(2,4,6-trihydroxyphenyl)methanone]	> 40 µg/mL	> 40 µg/mL	> 40 µg/mL
Cc1cc(Oc2ccccc2)ccc1C1CC1C(=O)c1c(O)cc(O)cc1O (stereo not drawn) [Example 39, (2-(2-methyl-4-phenoxyphenyl)cyclopropyl)(2,4,6-trihydroxyphenyl)methanone]	1.6 µg/mL (≈ 4.25 µM)	3.6 µg/mL (≈ 9.56 µM)	4.1 µg/mL (≈ 10.9 µM)
Cc1cc(Oc2ccccc2)ccc1/C=C/C(=O)c1c(O)cc(O)c(Cl)c1O [Example 40, (E)-1-(3-chloro-2,4,6-trihydroxyphenyl)-3-(2-methyl-4-phenoxyphenyl)prop-2-en-1-one]	9.4 µg/mL (≈ 23.7 µM)	> 40 µg/mL	> 40 µg/mL
Cc1cc(Oc2ccccc2)ccc1CCC(=O)c1c(O)cc(O)c(Cl)c1O [Example 41, 1-(3-chloro-2,4,6-trihydroxyphenyl)-3-(2-methyl-4-phenoxyphenyl)propan-1-one]	9.4 µg/mL (≈ 23.6 µM)	19 µg/mL (≈ 47.6 µM)	19 µg/mL (≈ 47.6 µM)
Cc1cc(Oc2ccccc2)ccc1C1CC1C(=O)c1c(O)cc(O)c(Cl)c1O (stereo not drawn) [Example 42, (3-chloro-2,4,6-trihydroxyphenyl)(2-(2-methyl-4-phenoxyphenyl)cyclopropyl)methanone]	10 µg/mL (≈ 24.3 µM)	14 µg/mL (≈ 34.1 µM)	16 µg/mL (≈ 38.9 µM)
O=C(c1c(O)cc(O)cc1O)C1CC1c1ccc(Oc2ccc(F)cc2F)cc1 (stereo not drawn) [Example 43, (2-(4-(2,4-difluorophenoxy)phenyl)cyclopropyl)(2,4,6-trihydroxyphenyl) methanone]	2.8 µg/mL (≈ 7.03 µM)	6.6 µg/mL (≈ 16.6 µM)	8.4 µg/mL (≈ 21.1 µM)
O=C(c1c(O)cc(O)cc1O)C1CC1c1ccc(Oc2ccc(F)cc2)cc1C(F)(F)F (stereo not drawn) [Example 44, (2-(4-(4-fluorophenoxy)-2-(trifluoromethyl)phenyl)cyclopropyl)(2,4,6-trihydroxyphenyl)methanone]	1.5 µg/mL (≈ 3.35 µM)	1.5 µg/mL (≈ 3.35 µM)	1.8 µg/mL (≈ 4.01 µM)
O=C(CCc1ccc(Oc2ccc(F)cc2)cc1)c1c(O)cc(O)c(Cl)c1O [Example 45, 1-(3-chloro-2,4,6-trihydroxyphenyl)-3-(4-(4-fluorophenoxy)phenyl)propan-1-one]	5.2 µg/mL (≈ 12.9 µM)	9.6 µg/mL (≈ 23.8 µM)	11 µg/mL (≈ 27.3 µM)
O=C(c1c(O)cc(O)c(Cl)c1O)C1CC1c1ccc(Oc2ccc(F)cc2)cc1 (stereo not drawn) [Example 46, (3-chloro-2,4,6-trihydroxyphenyl)(2-(4-(4-fluorophenoxy)phenyl)cyclopropyl)methanone]	6.6 µg/mL (≈ 15.9 µM)	9.6 µg/mL (≈ 23.1 µM)	12 µg/mL (≈ 28.9 µM)
O=C(c1c(O)cc(O)cc1O)C1CC1c1ccc(Cl)cc1C(F)(F)F (stereo not drawn) [Example 47, (2-(4-chloro-2-(trifluoromethyl)phenyl)cyclopropyl)(2,4,6-trihydroxyphenyl)methanone]	4.8 µg/mL (≈ 12.9 µM)	9.6 µg/mL (≈ 25.8 µM)	9.6 µg/mL (≈ 25.8 µM)
O=C(/C=C/c1ccc(Oc2ccc(F)cc2)cc1)c1c(O)cc(O)c(Cl)c1O [Example 48, (E)-1-(3-chloro-2,4,6-trihydroxyphenyl)-3-(4-(4-fluorophenoxy)phenyl)prop-2-en-1-one]	20 µg/mL (≈ 49.9 µM)	> 40 µg/mL	> 40 µg/mL
O=C(CCc1ccc(Oc2ccc(F)cc2)cc1C(F)(F)F)c1c(O)cc(O)c(Cl)c1O [Example 49, 1-(3-chloro-2,4,6-trihydroxyphenyl)-3-(4-(4-fluorophenoxy)-2-(trifluoromethyl)phenyl)propan-1-one]	12 µg/mL (≈ 25.5 µM)	12 µg/mL (≈ 25.5 µM)	12 µg/mL (≈ 25.5 µM)
Cc1cc(Oc2ccc(F)cc2)ccc1CCC(=O)c1c(O)cc(O)c(Cl)c1O [Example 50, 1-(3-chloro-2,4,6-trihydroxyphenyl)-3-(4-(4-fluorophenoxy)-2-methylphenyl)propan-1-one]	19 µg/mL (≈ 45.6 µM)	16 µg/mL (≈ 38.4 µM)	18 µg/mL (≈ 43.2 µM)
O=C(c1c(O)cc(O)c(Cl)c1O)C1CC1c1ccc(Oc2ccc(F)cc2)cc1C(F)(F)F (stereo not drawn) [Example 51, (3-chloro-2,4,6-trihydroxyphenyl)(2-(4-(4-fluorophenoxy)-2-(trifluoromethyl)phenyl)cyclopropyl)methanone]	16 µg/mL (≈ 33.1 µM)	11 µg/mL (≈ 22.8 µM)	15 µg/mL (≈ 31.1 µM)
Cc1cc(Oc2ccc(F)cc2)ccc1C1CC1C(=O)c1c(O)cc(O)c(Cl)c1O (stereo not drawn) [Example 52, (3-chloro-2,4,6-trihydroxyphenyl)(2-(4-(4-fluorophenoxy)-2-methylphenyl)cyclopropyl)methanone]	7.5 µg/mL (≈ 17.5 µM)	3.2 µg/mL (≈ 7.46 µM)	5.2 µg/mL (≈ 12.1 µM)
Cc1cc(Cl)ccc1C1CC1C(=O)c1c(O)cc(O)cc1O (stereo not drawn) [Example 53, (2-(4-chloro-2-methylphenyl)cyclopropyl)(2,4,6-trihydroxyphenyl)methanone]	4.7 µg/mL (≈ 14.7 µM)	4.7 µg/mL (≈ 14.7 µM)	5.3 µg/mL (≈ 16.6 µM)
O=C(c1c(O)cc(O)c(Cl)c1O)C1CC1c1ccc(Cl)cc1C(F)(F)F (stereo not drawn) [Example 54, (3-chloro-2,4,6-trihydroxyphenyl)(2-(4-chloro-2-(trifluoromethyl)phenyl)cyclopropyl)methanone]	17 µg/mL (≈ 41.8 µM)	12 µg/mL (≈ 29.5 µM)	17 µg/mL (≈ 41.8 µM)
O=C(c1c(O)cc(O)c(Cl)c1O)C1CC1c1ccc(Cl)cc1 (stereo not drawn) [Example 55, (3-chloro-2,4,6-trihydroxyphenyl)(2-(4-chlorophenyl)cyclopropyl)methanone]	> 40 µg/mL	17 µg/mL (≈ 50.1 µM)	22 µg/mL (≈ 64.9 µM)
Cc1cc(Cl)ccc1C1CC1C(=O)c1c(O)cc(O)c(Cl)c1O (stereo not drawn) [Example 56, (3-chloro-2,4,6-trihydroxyphenyl)(2-(4-chloro-2-methylphenyl)cyclopropyl)methanone]	> 40 µg/mL	17 µg/mL (≈ 48.1 µM)	22 µg/mL (≈ 62.3 µM)
O=C(c1c(O)cc(O)cc1O)C1CC1c1ccc(C(F)(F)F)cc1C(F)(F)F (stereo not drawn) [Example 57, (2-(2,4-bis(trifluoromethyl)phenyl)cyclopropyl)(2,4,6-trihydroxyphenyl)methanone]	3.5 µg/mL (≈ 8.61 µM)	4.3 µg/mL (≈ 10.6 µM)	5.7 µg/mL (≈ 14 µM)
O=C(c1c(O)cc(O)cc1O)C1CC1c1ccc(C(F)(F)F)cc1 (stereo not drawn) [Example 58, (2-(4-(trifluoromethyl)phenyl)cyclopropyl)(2,4,6-trihydroxyphenyl)methanone]	3.9 µg/mL (≈ 11.5 µM)	10 µg/mL (≈ 29.6 µM)	12 µg/mL (≈ 35.5 µM)
